Measurements published in article PMC8125234, “Cardiolipin Stabilizes and Increases Catalytic Efficiency of Carnitine Palmitoyltransferase II and Its Variants S113L, P50H, and Y479F” (International Journal of Molecular Sciences, 2021).
Where a chain is given by its changes, count along the chain named. “Also recorded” adds a separate entry of the source.

Experiments:
Assay in all cases: Lipid binding assay (membrane lipid strips)
Conditions in all cases: 0.4 mg enzyme, 100 pmol lipid spots
CPT II variant S113L = target: T1, CPT II variant S113L (Homo sapiens, UniProt P23786, S113L)
T1 construct: made in house; host or cells: Escherichia coli BL21Gold DE
T1 sequence (P23786 26-658 S113L): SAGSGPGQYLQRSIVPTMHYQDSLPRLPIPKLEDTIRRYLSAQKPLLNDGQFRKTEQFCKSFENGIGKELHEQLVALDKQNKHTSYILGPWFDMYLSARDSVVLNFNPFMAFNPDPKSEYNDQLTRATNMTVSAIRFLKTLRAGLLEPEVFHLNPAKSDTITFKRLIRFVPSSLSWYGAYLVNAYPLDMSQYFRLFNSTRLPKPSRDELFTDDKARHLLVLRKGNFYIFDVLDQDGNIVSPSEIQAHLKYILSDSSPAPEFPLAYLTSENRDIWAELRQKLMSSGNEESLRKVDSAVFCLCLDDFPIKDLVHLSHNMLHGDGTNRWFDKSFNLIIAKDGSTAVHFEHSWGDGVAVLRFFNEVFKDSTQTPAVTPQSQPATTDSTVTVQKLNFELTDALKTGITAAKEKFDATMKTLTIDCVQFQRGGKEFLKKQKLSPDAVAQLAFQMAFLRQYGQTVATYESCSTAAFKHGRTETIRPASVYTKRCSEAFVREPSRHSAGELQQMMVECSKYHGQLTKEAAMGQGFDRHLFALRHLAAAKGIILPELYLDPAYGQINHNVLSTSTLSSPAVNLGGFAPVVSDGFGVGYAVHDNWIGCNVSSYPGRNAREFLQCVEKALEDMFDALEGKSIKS
Experimental: (§1) Direct interaction of CPT II WT and variants with phospholipids of the mitochondrial membrane was assessed using membrane lipid strips (Echelon Biosciences, Salt Lake City, Utah, USA). The membrane was spotted with 100 pmol of various cell membrane lipids. The assay was performed following manufacturer’s instructions with some modifications explained in the following. At first, the membrane was washed twice in phosphate buffered saline (PBS). After 1 h incubation with blocking solution (3% BSA fatty acid-free in PBS) at room temperature, the membrane was incubated with purified CPT II WT or variant (final amount 0.4 mg protein) for 2 h at 4 °C. After three washing steps, a-His-Probe (H3) mouse monoclonal antibody (Santa Cruz Biotech, Santa Cruz, CA, USA, 1:1000 dilution in PBS containing 3% BSA) was added to the membrane over night at 4 °C. The membrane was washed three times with PBS and incubated with mouse IgG horseradish peroxidase-linked whole antibody (from sheep, Amersham, Little Chalfont, Buckinghamshire, UK) for 1 h at 4 °C. The interaction was visualized by ECL Western blotting detection reagents (Amersham, Little Chalfont, Buckinghamshire, UK).

CPT II variant P50H = target: T2, CPT II variant P50H (Homo sapiens, UniProt P23786, P50H)
T2 construct: made in house; host or cells: Escherichia coli BL21Gold DE
T2 sequence (P23786 26-658 P50H): T1 sequence (P23786 26-658 S113L) with P25H, L88S
Experimental: as §1

CPT II variant Y479F = target: T3, CPT II variant Y479F (Homo sapiens, UniProt P23786, Y479F)
T3 construct: made in house; host or cells: Escherichia coli BL21Gold DE
T3 sequence (P23786 26-658 Y479F): T1 sequence (P23786 26-658 S113L) with L88S, Y454F
Experimental: as §1

Cardiolipin [CL]
Signal for interaction on membrane lipid strips (CPT II variant S113L): clearly proven
Signal for interaction on membrane lipid strips (CPT II variant P50H): lowest; also recorded: clearly proven
Signal for interaction on membrane lipid strips (CPT II variant Y479F): clearly proven
